Experimental data published in US20230132535A1, “PROLIFERATION SUPPRESSING AGENT FOR CANINE CANCER CELLS” (Japan Animal Referral Medical Center, priority 2020, published 2023).

Columns and labels:
[1] = tested on: TCCV-Ec strain; experiment: Cell proliferation suppressing test (WST 1), TCCV-Ec strain; assay type: cell-based, canine; conditions: Canis lupus familiaris; TCCV-Ec strain only
Procedure: (§1) 1,000 to 3,000 established cell lines (TCCV-Ka, TCCV-So, TCCV-Ec, TCCV-Ni, and TCCV-Ic) per well were spread on 96 well culture plates and cultured for 24 hours, then 8 BRAF inhibiting agents (GDC0879, AZ628, PLX4720, Encorafenib, Vemurafenib, Dabrafenib, RAF265, and CEP32496) dissolved in 0.1% DMSO were added with GDC0879, AZ628, Vemurafenib, Dabrafenib, and RAF265 at 0, 50, 100, 500, 1000, 5000, and 10000 nM, PLX4720 at 0, 1, 10, 100, 1000, 5000, and 10000 nM, Encorafenib at 0, 32, 63, 125, 250, 500, and 1000 nM, CEP32496 at 0, 3, 10, 30, 100, 300, and 1000 nM, the number of surviving cells after 24, 48, and 72 hours was measured using WST 1, and the cell proliferation suppressing activity was calculated.
(§2) One example of the reaction curve of the BRAF inhibiting agent against canine V595E transitional epithelial cancer cells (TCC V-So strain) was shown in FIG. 1.

[2] = tested on: canine V595E transitional epithelial cancer cells (TCCV-Ka, TCCV-So, TCCV-Ec, TCCV-Ni, TCCV-Ic); experiment: Cell proliferation suppressing test (WST 1), five V595E transitional epithelial cancer established cell lines; assay type: cell-based
Source text: Using five canine V595E transitional epithelial cancer established cell lines, taken from clinical cases by the inventors so far and cloned in approximately 80 passages, the cell proliferation suppressing activity of eight human BRAF inhibiting agents (GDC0879, AZ628, PLX4720, Encorafenib, Vemurafenib, Dabrafenib, RAF265, and CEP32496), which are available and have high cell proliferation suppressing activity, was investigated. In addition, in the xenograft test system, suppression of tumor growth (anti-tumor activity) was measured and the anti-tumor activity was investigated.
as §1, with “calculated. […]” for “calculated.”

[3] = tested on: BRAFV595E transitional epithelial cancer cells (TCCV-Ka strain); experiment: Anti-tumor activity by a xenograft test system (TCCV-Ka strain in SCID mice); assay type: in vivo, SCID mouse; conditions: 10 mg/kg intraperitoneally, 5 times/week, compared to control group, from day 5 of administration
Procedure: In order to observe the anti-tumor activity in the xenograft test system, it has been reported that the tumor growth depends on the number of cells inoculated, cell strains, and animal species. Then, five strains of V595E transitional epithelial cancer established cell lines, 1×10^6 and 1×10^7 cells/200 μl, were inoculated subcutaneously on the ventral side of SCID mouse (CB17/Icr-scid/scid. Jcl, CLEA Japan), and the formation of tumors was observed.
Using the TCCV-Ka strain as a graft cell, 1×10^7 cells were inoculated on the right ventral side of 5 SCID mice in each of the administration group and the control group. Two weeks later, a tumor of approximately 5×5 mm was formed. In the control group, 10% DMSO was administered intraperitoneally, and in the administration group, 200 μl of CEP32496 suspension solution (10 mg/kg) in 10% DMSO was administered intraperitoneally. The administration was 5 times/week.

[4] = tested on: V595E transitional epithelial cancer cells (TCCV-So strain); experiment: Cell proliferation suppressing test (WST 1), TCCV-So strain; assay type: cell-based, canine; conditions: Canis lupus familiaris
Procedure: as §1, §2

[5] = tested on: TCCV-Ni strain; experiment: Cell proliferation suppressing test (WST 1), TCCV-Ni strain; assay type: cell-based, canine; conditions: Canis lupus familiaris

## COC(=O)N[C@@H](C)CNc1nccc(-c2cn(C(C)C)nc2-c2cc(Cl)cc(NS(C)(=O)=O)c2F)n1 [Encorafenib]
[1]
  IC50: 0.18 µM

## COc1cc2ncnc(Oc3cccc(NC(=O)Nc4cc(C(C)(C)C(F)(F)F)on4)c3)c2cc1OC [CEP32496, 1-(3-((6,7-dimethoxyquinazolin-4-yl)oxy)phenyl)-3-(5-(1,1,1-trifluoro-2-methylpropan-2-yl)isoxazol-3-yl)urea]
[2]; 5 strains, FIG. 2
  proliferation suppressing activity compared to the other 7 BRAF inhibiting agents: significantly higher activity
[2]; Canis lupus familiaris, all the cell strains used (5 strains)
  IC50: 0.009 to 0.2 µM
[3]
  suppression of tumor formation (anti-tumor activity): significant suppression of tumor formation
[4]
  IC50: 0.015 µM

## Cn1c(Nc2ccc(C(F)(F)F)cc2)nc2cc(Oc3ccnc(-c4ncc(C(F)(F)F)[nH]4)c3)ccc21 [RAF265]
[1]
  IC50: 0.15 µM

## CCCS(=O)(=O)Nc1ccc(F)c(C(=O)c2c[nH]c3ncc(Cl)cc23)c1F [PLX4720]
[1]
  IC50: 0.2 µM

## CCCS(=O)(=O)Nc1ccc(F)c(C(=O)c2c[nH]c3ncc(-c4ccc(Cl)cc4)cc23)c1F [Vemurafenib]
[5]
  IC50: 1.5 µM
